According to patent US9695155B2, “Herbicidal substituted pyrimidinyloxy benzene compounds” (E. I. DU PONT DE NEMOURS AND COMPANY, priority 2013, dated 2017):

Key:
[1] = test system: kochia; test: Test A postemergence; type: in vivo, Kochia scoparia
Procedure, shortened: (§1)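 Injury scores run from 0, no effect, to 100, complete control, judged by eye against untreated plants roughly 10 days after treatment. Chemicals carried a surfactant in a non-phytotoxic solvent and went onto loam–sand soil preemergence or onto one- to two-leaf seedlings postemergence.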

[2] = test system: ragweed; test: Test A preemergence; type: in vivo, Ambrosia elatior
Procedure, shortened: as §1

[3] = test system: blackgrass; test: Test C preemergence; type: in vivo, Alopecurus myosuroides; settings: for Blackgrass plant response rating: preemergence
Procedure, shortened: (§2)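 Sown in loam/sand → sprayed pre-emergence; or grown to 1–4 leaves in peat mix → sprayed post-emergence. Same solvent/surfactant formulation both ways. Greenhouse 13–15 d. Score 0–100 visual.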

[4] = test system: large (Lg) crabgrass; test: Test C preemergence; type: in vivo, Digitaria sanguinalis; settings: for Crabgrass, Large plant response rating: preemergence
Procedure, shortened: as §2

[5] = test system: oilseed rape; test: Test C preemergence; type: in vivo, Brassica napus; settings: for Oilseed Rape plant response rating: preemergence
Procedure, shortened: as §2

[6] = test system: barnyardgrass; test: Test C preemergence; type: in vivo, Echinochloa crus-galli; settings: for Barnyardgrass plant response rating: preemergence
Procedure, shortened: as §2

[7] = test system: galium; test: Test A postemergence; type: in vivo, Galium aparine
Procedure, shortened: as §1

[8] = test system: waterhemp; test: Test C preemergence; type: in vivo, Amaranthus rudis; settings: for Waterhemp plant response rating: preemergence
Procedure, shortened: as §2

[9] = test system: soybean; test: Test C preemergence; type: in vivo, Glycine max; settings: for Soybean plant response rating: preemergence
Procedure, shortened: as §2

[10] = test system: Italian ryegrass; test: Test A preemergence; type: in vivo, Lolium multiflorum
Procedure, shortened: as §1

[11] = test system: ragweed; test: Test C preemergence; type: in vivo, Ambrosia elatior; settings: for Ragweed plant response rating: preemergence
Procedure, shortened: as §2

[12] = test system: pigweed; test: Test C preemergence; type: in vivo, Amaranthus retroflexus; settings: for Pigweed plant response rating: preemergence
Procedure, shortened: as §2

[13] = test system: johnsongrass; test: Test C preemergence; type: in vivo, Sorghum halepense; settings: for Johnsongrass plant response rating: preemergence
Procedure, shortened: as §2

[14] = test system: giant foxtail; test: Test C preemergence; type: in vivo, Setaria faberii; settings: for Foxtail, Giant plant response rating: preemergence
Procedure, shortened: as §2

[15] = test system: ragweed; test: Test A postemergence; type: in vivo, Ambrosia elatior
Procedure, shortened: as §1

[16] = test system: Italian ryegrass; test: Test C preemergence; type: in vivo, Lolium multiflorum; settings: for Ryegrass, Italian plant response rating: preemergence
Procedure, shortened: as §2

[17] = test system: velvetleaf; test: Test C preemergence; type: in vivo, Abutilon theophrasti; settings: for Velvetleaf plant response rating: preemergence
Procedure, shortened: as §2

[18] = test system: kochia; test: Test A preemergence; type: in vivo, Kochia scoparia
Procedure, shortened: as §1

[19] = test system: wheat, winter; test: Test C preemergence; type: in vivo, Triticum aestivum; settings: for Wheat plant response rating: preemergence
Procedure, shortened: as §2

[20] = 125 g ai/ha, 0 to 100 scale, 0 no effect, 100 complete control
[21] = 500 g ai/ha, 0 to 100 scale where 0 is no effect and 100 is complete control
[22] = 16 g ai/ha, scale 0 to 100 (0 no effect, 100 complete control)
[23] = 125 g ai/ha, scale 0 (no effect) to 100 (complete control)
[24] = Preemergence, 62 g ai/ha, scale 0 to 100, 0 no effect, 100 complete control

SMILES: N#Cc1cnn(-c2c(Oc3ncc(F)cn3)cccc2C(F)F)c1 [Compound 240]
- Plant response rating, Kochia [1, 20]: 100
- Plant response rating, Kochia [1, 21]: 60
- Ragweed plant response rating (0 to 100 scale) ([2]; 125 g ai/ha): 90
- Ragweed plant response rating [2, 21]: 100
- Blackgrass plant response rating [3, 22]: 0
- Blackgrass plant response rating [3, 23]: 95
- Plant response rating, Blackgrass [3, 24]: 95
- Crabgrass, Large plant response rating [4, 22]: 75
- Crabgrass, Large plant response rating [4, 23]: 100
- Plant response rating, Crabgrass, Large [4, 24]: 100
- Oilseed Rape plant response rating [5, 22]: 70
- Oilseed Rape plant response rating [5, 23]: 100
- Plant response rating, Oilseed Rape [5, 24]: 100
- Barnyardgrass plant response rating [6, 22]: 5
- Barnyardgrass plant response rating [6, 23]: 100
- Plant response rating, Barnyardgrass [6, 24]: 60
- Plant response rating, Galium [7, 20]: 100
- Plant response rating, Galium [7, 21]: 100
- Waterhemp plant response rating [8, 22]: 50
- Waterhemp plant response rating [8, 23]: 100
- Plant response rating, Waterhemp [8, 24]: 100
- Soybean plant response rating [9, 22]: 40
- Soybean plant response rating [9, 23]: 98
- Plant response rating, Soybean [9, 24]: 85
- Ryegrass, Italian plant response rating (0 to 100 scale) ([10]; 125 g ai/ha): 20
- Ryegrass, Italian plant response rating [10, 21]: 70
- Ragweed plant response rating [11, 22]: 10
- Ragweed plant response rating [11, 23]: 80
- Plant response rating, Ragweed [11, 24]: 100
- Pigweed plant response rating [12, 22]: 5
- Pigweed plant response rating [12, 23]: 65
- Plant response rating, Pigweed [12, 24]: 55
- Johnsongrass plant response rating [13, 22]: 5
- Johnsongrass plant response rating [13, 23]: 45
- Plant response rating, Johnsongrass [13, 24]: 10
- Foxtail, Giant plant response rating [14, 22]: 10
- Foxtail, Giant plant response rating [14, 23]: 100
- Plant response rating, Foxtail, Giant [14, 24]: 100
- Plant response rating, Ragweed [15, 20]: 100
- Plant response rating, Ragweed [15, 21]: 100
- Ryegrass, Italian plant response rating [16, 22]: 0
- Ryegrass, Italian plant response rating [16, 23]: 50
- Plant response rating, Ryegrass, Italian [16, 24]: 0
- Velvetleaf plant response rating [17, 22]: 25
- Velvetleaf plant response rating [17, 23]: 85
- Plant response rating, Velvetleaf [17, 24]: 80
- Kochia plant response rating (0 to 100 scale) ([18]; 125 g ai/ha): 100
- Kochia plant response rating [18, 21]: 100
- Wheat plant response rating [19, 22]: 0
- Wheat plant response rating [19, 23]: 5
- Plant response rating, Wheat [19, 24]: 0
